Here are results for nine compounds from paper PMC5711933, “Intracellular biomass flocculation as a key mechanism of rapid bacterial killing by cationic, amphipathic antimicrobial peptides and peptoids” (Scientific Reports, 2017).

The subject of data set [1] is Bioluminescent P. aeruginosa. In kind it is cell-based, Pseudomonas aeruginosa. The following applies: 12.5 µM, LB, 37 °C; for Activity in bioluminescence kinetics assay (in words): up to 2 h.
Method: The decrease in bioluminescence at 37 °C was measured for a range of concentrations from 0 – 100 μM (Supp. Figs. S6 and S7).
Bioluminescent P. aeruginosa [73] was grown at 37 °C in Luria-Bertani (LB) broth. […] In a 96-well plate, 50 µL of P. aeruginosa solution (1 × 10^6 CFU/mL) was added to 50 µL of antimicrobial solution, and the bioluminescence was measured using an IVIS imaging system (a Xenogen product from Caliper Life Sciences, Hopkinton, MA) at 10 min intervals for 2 h. The reported values are the average of three independent experiments with two replicates each.
The subject of data set [2] is E. coli ATCC 35218. Kind of data set: Bacterial count by plating after treatment, before TEM sample preparation. In kind it is cell-based. The following applies: 1 hour in PBS pH 7.4, control 1 × 10^8 CFU/mL.
Method: E. coli ATCC 35218, grown overnight at 35 °C in Mueller-Hinton broth (MHB), were resuspended in 1X (150 mM) PBS, pH 7.4, and diluted to a concentration of 1 × 10^8 CFU/mL. Aqueous peptide/peptoid stock solutions were added to 1 mL aliquots of the suspension to the desired final concentration. After 1 hour, small volumes of each sample were serially diluted, plated, and incubated overnight at 35 °C, to be counted the following day. The remaining volume of each sample was centrifuged, and the pellet resuspended and enrobed in 5–10 µL of 2% low-melting agarose (gelling temperature 25° ± 5 °C) then drawn up into the tip of a Pasteur pipette. The solidified rods were extruded into fixative (2% glutaraldehyde, 2% paraformaldehyde, 50 mM PBS, pH 7.4). […] 50 nm thin sections of embedded samples were cut using a diamond knife, stained for 5 min in 5% aqueous uranyl acetate, then rinsed in H2O. Sections were examined in a JEOL 1230 TEM. Experimental conditions were each repeated in at least two independent trials. For each replicate of each sample, bacteria across the thin section were first surveyed to determine morphological characteristics representative of that sample, then images were captured of at least five bacteria displaying those morphologies with an emphasis on clean (i.e., orthogonal) transverse and/or longitudinal sections. Each image shown is thus representative of the ultrastructural characteristics observed in bacteria throughout a given sample and between replicates.
The next data set deals with EGFP-Luc plasmid. The data set is described as follows: DNA retardation assay (gel electrophoresis). It is filed as binding. The note with it: EGFP-Luc plasmid in TBS, complexes 20 min at room temperature, 1–2% agarose gel.
Data set [3] can be described thus: RP-HPLC elution (% ACN) as measure of hydrophobicity. In kind it is physicochemical. The note with it: chromatographic hydrophobicity; gradient of 5–95% acetonitrile (ACN) over 45 minutes, C18 column, 0.2 mL/min; average of three replicates.
A further data set concerns P. aeruginosa. Kind of data set: Bacterial plating of P. aeruginosa (CFU). In kind it is cell-based, Pseudomonas aeruginosa. The following applies: 12.5 µM, LB, 37 °C, average of three replicates.
Data set [4] has as its system E. coli bacterial ribosomes. The data set is described as follows: Aggregation of bacterial ribosomes (optical density at 550 nm). In kind it is biochemical. The note with it: 1 µM ribosome solution, antimicrobial up to 800 µM, 10 min, λ = 550 nm.
Method: In a microcentrifuge tube, 5 µl of 1 µM purified bacterial ribosome solution (~40X diluted (v/v) from their intracellular concentration in bacterial cytosol)[62] was incubated with 5 µl of antimicrobial solution in a concentration range of 0–800 µM for 10 min. The absorbance of the solution was measured by UV-Vis spectroscopy at λ = 550 nm by a spectrophotometer (ND-1000, Thermo Scientific, Wilmington, DE). The values are reported as the average of three independent experiments with three replicates each.
The subject of data set [5] is E. coli ATCC 35218. In kind it is cell-based. The following applies: CAMHB, 35 °C, 16 h, final 5 × 10^5 CFU/mL, reproducible between three independent replicates.
Method: MICs were determined according to CLSI M7-A6 protocols in a 96-well microtiter plate. In test wells, 50 μL bacterial inoculum (1 × 10^6 CFU/ml) in cation-adjusted Mueller-Hinton broth (CAMHB) was added to 50 μL peptoid solution in CAMHB (prepared by 1:2 serial dilutions). Positive controls contained 50 μL inoculum and 50 μL CAMHB without peptoid. […] MIC values reported were reproducible between three independent experimental replicates, each consisting of two parallel trials.
Another data set deals with Erythrocytes. The data set is described as follows: Hemolysis assay. It is filed as cell-based. The note with it: human erythrocytes in PBS pH 7.4, 1 h at 37 °C, A350; three independent replicates (two for LL-37 and fowlicidin-1). As for the experimental part: The plate was then centrifuged at 1200 g for 15 min, 100 μL of the supernatant from each well transferred to a fresh microtiter plate, and A350 measured.

Data set [6] relates to E. coli ATCC 35218. Kind of data set: Bacterial count by plating after 1-hour treatment, before SEM sample preparation. The following applies: 1 hour in PBS, control 5 × 10^5 CFU/mL. In kind it is cell-based. Here is the method:
E. coli was treated with 10 μM peptide or peptoid for 1 hour in phosphate-buffered saline (PBS). […] We used 10 μM peptide/peptoid for all samples since it is near the MICs of the majority of the oligomers.
Before fixation, aliquots of each samples were serially diluted and plated on agar to determine the concentration of live bacteria remaining after the 1-hour treatment. […] (1) SEM samples were treated in PBS (as discussed above), whereas MIC assays are performed in cation-adjusted Mueller-Hinton broth. AMPs and ampetoids are known to interact with ions in the media (for example, when switching from plain Mueller-Hinton broth to cation-adjusted Mueller-Hinton broth)[1], so differences in activity may be due to changes in media composition. (2) the treatments were for one hour only, whereas MICs are determined after 16 hours of growth. […] (3) Some of these compounds may cause inhibition of growth without causing bacterial cell death (i.e., they are bacteriostatic—which is what the MIC indicates—rather than bactericidal—which is determined by plating and counting colonies). […]
Overnight cultures of E. coli ATCC 35218 were centrifuged for 10 min and 2500 × g at room temperature, then resuspended in PBS. […] Bacterial concentrations of the diluted suspensions were calculated from their OD590 values using optical density curves derived from pre-determined concentrations. […]

[7] abbreviates: average of three independent experiments with two replicates each.

Like-named read-outs stand apart in the source and are kept apart here. Marks after values point to notes of the source that are not given here. Non-standard residues stand in square brackets, D forms with d. Residues, ends and D or L forms follow the SMILES beside them. N(1S-Me-propyl)Gly = CC[C@H](C)NCC(=O)O; Nspe = C[C@H](NCC(=O)O)c1ccccc1; Nphe = O=C(O)CNCc1ccccc1; Nlys = NCCCCNCC(=O)O

Method for EGFP-Luc plasmid: DNA retardation was analyzed by gel electrophoresis. Peptoid/peptide-DNA complexes were formed by adding 10 µL of peptide/peptoid solution of varying concentrations to 10 µL DNA solution (EGFP-Luc plasmid in Tris-buffered saline (TBS) buffer), and the resulting solution was mixed by gentle aspiration. Complexes were incubated for 20 min at room temperature. After complex formation, 20 µL of each sample were loaded onto a 1–2% agarose gel in Tris/borate/EDTA (TBE) buffer, which ran at 120 V for 15 min. DNA bands on the gel were visualized under UV light by ethidium bromide staining.

Turning to `NCCCCNCC(=O)N(CC(=O)N(CC(=O)N(CCCCN)CC(=O)N(CC(=O)N(CC(=O)N(CCCCN)CC(=O)N(CC(=O)N(CC(=O)N(CCCCN)CC(=O)N(CC(=O)N(CC(N)=O)Cc1ccccc1)Cc1ccccc1)Cc1ccccc1)Cc1ccccc1)Cc1ccccc1)Cc1ccccc1)Cc1ccccc1)Cc1ccccc1` [1 achiral] (H-[Nlys][Nphe][Nphe][Nlys][Nphe][Nphe][Nlys][Nphe][Nphe][Nlys][Nphe][Nphe]-NH2), the “Decrease in bioluminescence within 10 min” value in [1] (10 min, average of three independent experiments with two replicates each) was ~ 99.9%. Moreover, in the data set on E. coli ATCC 35218 [2], the “TEM: Bacterial count after 10 µM treatment (% of control)” value is reported as 100 % of control and the “TEM: Bacterial count after 100 µM treatment (% of control)” value is recorded as 0.03 % of control. In the data set with EGFP-Luc plasmid, the “Retardation assay: mass of compound required to completely retard migration of 1 µg of DNA” value (from here on “Retardation assay: mass”) was found to be 1.5 µg. In addition, the “% ACN at RP-HPLC elution” value in [3] is 60.4%.
With `C[C@@H](c1ccccc1)N(CC(N)=O)C(=O)CN(CCCCN)C(=O)CN(CCCCN)C(=O)CN(C(=O)CN(C(=O)CN(CCCCN)C(=O)CN(C(=O)CN(CCCCN)C(=O)CN(CCCCN)C(=O)CN(C(=O)CN(C(=O)CNCCCCN)[C@@H](C)c1ccccc1)[C@@H](C)c1ccccc1)[C@@H](C)c1ccccc1)[C@@H](C)c1ccccc1)[C@@H](C)c1ccccc1` [1-NLys5,11] (H-[Nlys][Nspe][Nspe][Nlys][Nlys][Nspe][Nlys][Nspe][Nspe][Nlys][Nlys][Nspe]-NH2; N-terminus and C-terminus assumed), in the data set on E. coli ATCC 35218 [2], the “TEM: Bacterial count after 10 µM treatment (% of control)” value is on record as 100 % of control and the “TEM: Bacterial count after 100 µM treatment (% of control)” value was 30 % of control. The “Retardation assay: mass” value with EGFP-Luc plasmid was found to be 1.0 µg. Also, in data set [3], the “% ACN at RP-HPLC elution” value amounted to 51.2%.
In the case of `C[C@@H](c1ccccc1)N(CC(N)=O)C(=O)CN(C(=O)CN(CCCCN)C(=O)[C@@H]1CCCN1C(=O)CN(C(=O)CN(CCCCN)C(=O)CN(C(=O)CN(C(=O)CN(CCCCN)C(=O)CN(C(=O)CN(C(=O)CNCCCCN)[C@@H](C)c1ccccc1)[C@@H](C)c1ccccc1)[C@@H](C)c1ccccc1)[C@@H](C)c1ccccc1)[C@@H](C)c1ccccc1)[C@@H](C)c1ccccc1` [1-Pro9] (H-[Nlys][Nspe][Nspe][Nlys][Nspe][Nspe][Nlys][Nspe]P[Nlys][Nspe][Nspe]-NH2), the “Decrease in bioluminescence at 2 h” value in data set [1] (setting [7]) is recorded as ~ 20%. Moreover, the “% ACN at RP-HPLC elution” value in [3] is listed as 62.6%.
Regarding `O=C(O)c1cn(C2CC2)c2cc(N3CCNCC3)c(F)cc2c1=O` [Ciprofloxacin], the “Decrease in bioluminescence at 1 h” value in data set [1] (1 h, average of three independent experiments with two replicates each) is on record as ~ 97%. Further, in the data set with P. aeruginosa, the “Killing of bacteria within 10 minutes (CFU plating, in words)” value (from here on “Killing of bacteria within 10 minutes”) was “did not kill bacteria”. For the same compound, the “Aggregation of ribosomes (in words)” value in data set [4] is “no aggregation”.
For `CC[C@H](C)[C@H](NC(=O)[C@H](CCCCN)NC(=O)[C@H](CCC(=O)O)NC(=O)[C@H](CCCCN)NC(=O)[C@H](CO)NC(=O)[C@H](CCCCN)NC(=O)[C@H](CCCNC(=N)N)NC(=O)[C@H](Cc1ccccc1)NC(=O)[C@H](Cc1ccccc1)NC(=O)[C@H](CC(=O)O)NC(=O)CNC(=O)[C@H](CC(C)C)NC(=O)[C@@H](N)CC(C)C)C(=O)NCC(=O)N[C@@H](CCCCN)C(=O)N[C@@H](CCC(=O)O)C(=O)N[C@@H](Cc1ccccc1)C(=O)N[C@@H](CCCCN)C(=O)N[C@@H](CCCNC(=N)N)C(=O)N[C@H](C(=O)N[C@H](C(=O)N[C@@H](CCC(N)=O)C(=O)N[C@@H](CCCNC(=N)N)C(=O)N[C@H](C(=O)N[C@@H](CCCCN)C(=O)N[C@@H](CC(=O)O)C(=O)N[C@@H](Cc1ccccc1)C(=O)N[C@@H](CC(C)C)C(=O)N[C@@H](CCCNC(=N)N)C(=O)N[C@@H](CC(N)=O)C(=O)N[C@@H](CC(C)C)C(=O)N[C@H](C(=O)N1CCC[C@H]1C(=O)N[C@@H](CCCNC(=N)N)C(=O)N[C@H](C(=O)N[C@@H](CCC(=O)O)C(=O)N[C@@H](CO)C(=O)O)[C@@H](C)O)C(C)C)[C@@H](C)CC)C(C)C)[C@@H](C)CC` [LL-37, reference compound], in the data set with E. coli ATCC 35218 [5], the “E. coli ATCC 35218 MIC” value was found to be 12.5 µM. In addition, in the data set with Erythrocytes, the “HD10 (hemolytic dose; concentration for 10% hemolysis)” value is >100/>100^§ µM and the “HD50 (hemolytic dose; concentration for 50% hemolysis)” value is listed as >100/>100^§ µM.
For `CC[C@H](C)N(CC(N)=O)C(=O)CN(C(=O)CN(CCCCN)C(=O)CN(C(=O)CN(C(=O)CN(CCCCN)C(=O)CN(C(=O)CN(C(=O)CN(CCCCN)C(=O)CN(C(=O)CN(C(=O)CNCCCCN)[C@@H](C)CC)[C@@H](C)CC)[C@@H](C)CC)[C@@H](C)CC)[C@@H](C)CC)[C@@H](C)CC)[C@@H](C)CC` [compound 2] (H-[Nlys][N(1S-Me-propyl)Gly][N(1S-Me-propyl)Gly][Nlys][N(1S-Me-propyl)Gly][N(1S-Me-propyl)Gly][Nlys][N(1S-Me-propyl)Gly][N(1S-Me-propyl)Gly][Nlys][N(1S-Me-propyl)Gly][N(1S-Me-propyl)Gly]-NH2), the “E. coli ATCC 35218 MIC” value with E. coli ATCC 35218 [5] (listed as peptoid 2) is on record as > 100 µM. The “Activity in bioluminescence kinetics assay (in words)” value in data set [1] is on record as “completely ineffective”. Also, in the data set with E. coli ATCC 35218 [2], the “TEM: Bacterial count after 10 µM treatment (% of control)” value is recorded as 100 % of control and the “TEM: Bacterial count after 100 µM treatment (% of control)” value is 100 % of control. The “Retardation assay: mass” value in the data set on EGFP-Luc plasmid is >145^§ µg. Moreover, the “SEM: Bacterial count after 10 µM treatment (% of control)” value in the data set on E. coli ATCC 35218 [6] is on record as 100 % of control. The “% ACN at RP-HPLC elution” value in data set [3] turned out to be 52.4%. Besides, the “Aggregation of ribosomes (in words)” value in data set [4] is listed as “did not cause aggregation”.
For the compound `CC[C@H](C)[C@H](NC(=O)CN)C(=O)NCC(=O)N[C@@H](C)C(=O)N[C@H](C(=O)N[C@@H](CC(C)C)C(=O)N[C@@H](CCCCN)C(=O)N[C@H](C(=O)N[C@@H](CC(C)C)C(=O)N[C@H](C(=O)N[C@H](C(=O)NCC(=O)N[C@@H](CC(C)C)C(=O)N1CCC[C@H]1C(=O)N[C@@H](C)C(=O)N[C@@H](CC(C)C)C(=O)N[C@H](C(=O)N[C@@H](CO)C(=O)N[C@@H](Cc1c[nH]c2ccccc12)C(=O)N[C@H](C(=O)N[C@@H](CCCCN)C(=O)N[C@@H](CCCNC(=N)N)C(=O)N[C@@H](CCCCN)C(=O)N[C@@H](CCCNC(=N)N)C(=O)N[C@@H](CCC(N)=O)C(=O)N[C@@H](CCC(N)=O)C(N)=O)[C@@H](C)CC)[C@@H](C)CC)[C@@H](C)O)[C@@H](C)O)C(C)C)C(C)C` [melittin, reference compound], the “E. coli ATCC 35218 MIC” value in the data set on E. coli ATCC 35218 [5] was found to be 12.5 µM.
For `CN(C)[C@@H]1C(O)=C(C(N)=O)C(=O)[C@@]2(O)C(O)=C3C(=O)c4c(O)cccc4[C@@](C)(O)[C@H]3C[C@@H]12` [tetracycline], in [1] (setting [7]), the “Decrease in bioluminescence at 2 h” value is listed as ~ 97%. The “Killing of bacteria within 10 minutes” value with P. aeruginosa was “did not kill bacteria”. Also, the “Aggregation of ribosomes (in words)” value in data set [4] is listed as “no aggregation”.
Regarding oligomycin A, the “Activity in bioluminescence kinetics assay (in words)” value in [1] was “inactive”. For the same compound, the “Killing of bacteria within 10 minutes” value in the data set with P. aeruginosa is reported as “did not kill bacteria”. The “Aggregation of ribosomes (in words)” value in data set [4] is on record as “no aggregation”.
